Experimental data as given in article PMC5491562, “Effects of semaglutide on beta cell function and glycaemic control in participants with type 2 diabetes: a randomised, double-blind, placebo-controlled trial” (Diabetologia, 2017).

Legend:
[1] = Steady-state pharmacokinetics of semaglutide; conditions: 1.0 mg s.c. at steady state; estimated in 34 participants; geometric mean (CV, %)
Description: Blood samples were drawn throughout the trial to assess PK (trough values).
time–concentration curve during a dosing interval), calculated using standard non-
compartmental methods using the linear trapezoidal method on the observed concentrations
using actual time points; maximum concentration (Cmax), derived as the maximum of all
half-life (t½), calculated as log2/λz, where λz was estimated by log-linear regression on the

[2] = cited from earlier work
Description: Semaglutide (Novo Nordisk, Bagsværd, Denmark) is a GLP-1 analogue in development for the once-weekly treatment of type 2 diabetes. It has 94% structural homology to native human GLP-1, and is based on the same […] technology as liraglutide. Important structural modifications make semaglutide more resistant to degradation by dipeptidyl peptidase-4 and improve binding to albumin [16]. These modifications result in a t ½ of approximately 1 week, making semaglutide appropriate for once-weekly s.c. administration, with a fully retained potency.

[3] = system: participants with type 2 diabetes; conditions: in vivo
Description: Adverse events (AEs) were recorded from the time of the participant signing informed consent through to the end of follow-up and were regarded as treatment-emergent adverse events (TEAEs) if beginning (or increasing in severity) after the first study dose and no later than the end of follow-up.

CC[C@H](C)[C@H](NC(=O)[C@H](Cc1ccccc1)NC(=O)[C@H](CCC(=O)O)NC(=O)[C@H](CCCCNC(=O)COCCOCCNC(=O)COCCOCCNC(=O)CC[C@H](NC(=O)CCCCCCCCCCCCCCCCC(=O)O)C(=O)O)NC(=O)[C@H](C)NC(=O)[C@H](C)NC(=O)[C@H](CCC(N)=O)NC(=O)CNC(=O)[C@H](CCC(=O)O)NC(=O)[C@H](CC(C)C)NC(=O)[C@H](Cc1ccc(O)cc1)NC(=O)[C@H](CO)NC(=O)[C@H](CO)NC(=O)[C@@H](NC(=O)[C@H](CC(=O)O)NC(=O)[C@H](CO)NC(=O)[C@@H](NC(=O)[C@H](Cc1ccccc1)NC(=O)[C@@H](NC(=O)CNC(=O)[C@H](CCC(=O)O)NC(=O)C(C)(C)NC(=O)[C@@H](N)Cc1cnc[nH]1)[C@@H](C)O)[C@@H](C)O)C(C)C)C(=O)N[C@@H](C)C(=O)N[C@@H](Cc1c[nH]c2ccccc12)C(=O)N[C@@H](CC(C)C)C(=O)N[C@H](C(=O)N[C@@H](CCCNC(=N)N)C(=O)NCC(=O)N[C@@H](CCCNC(=N)N)C(=O)NCC(=O)O)C(C)C [semaglutide, Semaglutide]
Vz/F [1]: 11.2 (18.6) l
t½ [2]: approximately 1 week
Anti-semaglutide antibodies [3]: no anti-
Any TEAE, number of participants with events (%) [3]: 28 (75.7)
Gastrointestinal disorders, number of participants with events (%) [3]: 19 (51.4)
Injury, poisoning and procedural complications, number of participants with events (%) [3]: 1 (2.7)
Metabolism and nutrition disorders, number of participants with events (%) [3]: 4 (10.8)
Musculoskeletal and connective disorders, number of participants with events (%) [3]: 1 (2.7)
Nervous system disorders, number of participants with events (%) [3]: 5 (13.5)
Participants with TEAEs [3]: 75.7%
Participants with diarrhoea [3]: 10.8%
Participants with gastrointestinal TEAEs [3]: 51.4%
Participants with nausea [3]: 18.9%
Participants with vomiting [3]: 16.2%
Serious TEAE, number of participants with events (%) [3]: 2 (5.4)
Severe TEAE, number of participants with events (%) [3]: 1 (2.7)
Systolic blood pressure [3]: slightly decreased
TEAE leading to withdrawal, number of participants with events (%) [3]: 1 (2.7)
Vascular disorders, number of participants with events (%) [3]: 3 (8.1)
